# From patent publication US11447466B2, “Substituted indole compounds useful as inhibitors of TLR7/8/9” (BRISTOL-MYERS SQUIBB COMPANY, priority 2017, dated 2022)
# Tests used:
# Type in all cases: cell-based
# [1] = target: T1, human TLR8 (Homo sapiens, UniProt Q9NR97); test: TLR8 inhibition reporter assay (HEK-Blue SEAP reporter, R848 stimulation); conditions: HEK-Blue cells overexpressing human TLR8, SEAP reporter, R848 15.9 μM, 22 hour incubation
# T1 construct: host or cells: HEK-Blue cells
# T1 sequence (Q9NR97 27-1041): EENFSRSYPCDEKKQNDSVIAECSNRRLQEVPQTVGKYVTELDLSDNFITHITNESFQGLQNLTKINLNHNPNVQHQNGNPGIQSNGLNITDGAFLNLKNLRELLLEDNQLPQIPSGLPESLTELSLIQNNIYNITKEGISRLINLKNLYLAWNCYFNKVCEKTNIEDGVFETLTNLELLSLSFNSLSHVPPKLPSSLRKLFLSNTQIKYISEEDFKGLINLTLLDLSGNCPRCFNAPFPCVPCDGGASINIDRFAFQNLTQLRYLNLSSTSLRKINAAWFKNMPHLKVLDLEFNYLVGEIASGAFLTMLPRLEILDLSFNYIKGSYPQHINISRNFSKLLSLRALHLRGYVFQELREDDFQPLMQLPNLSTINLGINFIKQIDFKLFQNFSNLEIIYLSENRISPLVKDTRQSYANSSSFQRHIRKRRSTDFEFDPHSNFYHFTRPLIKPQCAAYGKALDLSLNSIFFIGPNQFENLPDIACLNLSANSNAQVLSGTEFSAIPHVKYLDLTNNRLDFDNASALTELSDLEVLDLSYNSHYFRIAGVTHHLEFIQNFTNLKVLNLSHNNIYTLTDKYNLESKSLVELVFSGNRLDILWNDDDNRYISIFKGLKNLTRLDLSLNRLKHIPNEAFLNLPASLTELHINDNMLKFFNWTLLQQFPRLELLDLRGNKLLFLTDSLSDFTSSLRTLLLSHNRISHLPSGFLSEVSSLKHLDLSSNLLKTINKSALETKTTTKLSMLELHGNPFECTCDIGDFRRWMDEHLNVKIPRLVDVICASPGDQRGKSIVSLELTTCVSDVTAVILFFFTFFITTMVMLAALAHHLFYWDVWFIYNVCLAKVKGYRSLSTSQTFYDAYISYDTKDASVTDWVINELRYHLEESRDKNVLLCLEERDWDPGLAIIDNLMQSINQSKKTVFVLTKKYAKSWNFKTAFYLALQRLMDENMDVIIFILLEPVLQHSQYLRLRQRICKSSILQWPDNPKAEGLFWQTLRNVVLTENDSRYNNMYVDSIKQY
# Method in brief: (§1)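 Screening used HEK-Blue cells overexpressing one human TLR (7, 8 or 9) and an IFN-β minimal promoter–NF-κB/AP-1 SEAP construct. Stimulation lasted 22 h at 37 °C with receptor-specific agonist: gardiquimod, R848 or ODN2006 at 7.5 μM, 15.9 μM and 5 nM.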
# [2] = target: T2, human TLR7 (Homo sapiens, UniProt Q9NYK1); test: TLR7 inhibition reporter assay (HEK-Blue SEAP reporter, gardiquimod stimulation); conditions: HEK-Blue cells overexpressing human TLR7, SEAP reporter, gardiquimod 7.5 μM, 22 hour incubation
# T2 construct: host or cells: HEK-Blue cells
# T2 sequence (Q9NYK1 27-1049): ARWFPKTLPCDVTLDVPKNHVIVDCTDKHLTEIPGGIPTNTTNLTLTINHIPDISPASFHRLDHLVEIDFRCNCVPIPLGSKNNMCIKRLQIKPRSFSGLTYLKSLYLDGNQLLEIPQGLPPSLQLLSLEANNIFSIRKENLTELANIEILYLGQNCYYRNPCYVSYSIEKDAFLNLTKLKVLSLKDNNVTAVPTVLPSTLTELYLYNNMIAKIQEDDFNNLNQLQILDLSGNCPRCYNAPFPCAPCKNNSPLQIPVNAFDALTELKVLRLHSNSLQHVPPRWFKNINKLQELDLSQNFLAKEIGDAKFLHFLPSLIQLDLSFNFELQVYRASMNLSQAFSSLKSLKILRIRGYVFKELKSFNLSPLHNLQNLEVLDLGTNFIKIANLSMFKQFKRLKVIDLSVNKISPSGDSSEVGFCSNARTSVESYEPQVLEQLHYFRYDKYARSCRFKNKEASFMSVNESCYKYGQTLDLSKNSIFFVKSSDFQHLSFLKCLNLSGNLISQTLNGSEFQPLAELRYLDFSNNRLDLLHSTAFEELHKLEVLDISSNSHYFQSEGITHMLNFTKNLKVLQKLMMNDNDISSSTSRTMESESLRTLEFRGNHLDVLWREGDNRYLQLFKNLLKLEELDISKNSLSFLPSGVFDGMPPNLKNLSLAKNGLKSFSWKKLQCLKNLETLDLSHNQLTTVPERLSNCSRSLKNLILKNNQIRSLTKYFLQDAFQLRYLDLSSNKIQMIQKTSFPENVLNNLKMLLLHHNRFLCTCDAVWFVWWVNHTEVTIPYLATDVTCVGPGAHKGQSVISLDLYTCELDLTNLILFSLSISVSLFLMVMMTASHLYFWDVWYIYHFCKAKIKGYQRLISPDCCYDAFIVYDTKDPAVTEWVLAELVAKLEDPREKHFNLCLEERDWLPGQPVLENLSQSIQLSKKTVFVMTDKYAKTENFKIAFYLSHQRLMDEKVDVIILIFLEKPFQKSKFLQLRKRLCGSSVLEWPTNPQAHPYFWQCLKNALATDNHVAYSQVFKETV
# Method in brief: as §1
# [3] = target: T3, human TLR9 (Homo sapiens, UniProt Q9NR96); test: TLR9 inhibition reporter assay (HEK-Blue SEAP reporter, ODN2006 stimulation); conditions: HEK-Blue cells overexpressing human TLR9, SEAP reporter, ODN2006 5 nM, 22 hour incubation
# T3 construct: host or cells: HEK-Blue cells
# T3 sequence (Q9NR96 26-1032): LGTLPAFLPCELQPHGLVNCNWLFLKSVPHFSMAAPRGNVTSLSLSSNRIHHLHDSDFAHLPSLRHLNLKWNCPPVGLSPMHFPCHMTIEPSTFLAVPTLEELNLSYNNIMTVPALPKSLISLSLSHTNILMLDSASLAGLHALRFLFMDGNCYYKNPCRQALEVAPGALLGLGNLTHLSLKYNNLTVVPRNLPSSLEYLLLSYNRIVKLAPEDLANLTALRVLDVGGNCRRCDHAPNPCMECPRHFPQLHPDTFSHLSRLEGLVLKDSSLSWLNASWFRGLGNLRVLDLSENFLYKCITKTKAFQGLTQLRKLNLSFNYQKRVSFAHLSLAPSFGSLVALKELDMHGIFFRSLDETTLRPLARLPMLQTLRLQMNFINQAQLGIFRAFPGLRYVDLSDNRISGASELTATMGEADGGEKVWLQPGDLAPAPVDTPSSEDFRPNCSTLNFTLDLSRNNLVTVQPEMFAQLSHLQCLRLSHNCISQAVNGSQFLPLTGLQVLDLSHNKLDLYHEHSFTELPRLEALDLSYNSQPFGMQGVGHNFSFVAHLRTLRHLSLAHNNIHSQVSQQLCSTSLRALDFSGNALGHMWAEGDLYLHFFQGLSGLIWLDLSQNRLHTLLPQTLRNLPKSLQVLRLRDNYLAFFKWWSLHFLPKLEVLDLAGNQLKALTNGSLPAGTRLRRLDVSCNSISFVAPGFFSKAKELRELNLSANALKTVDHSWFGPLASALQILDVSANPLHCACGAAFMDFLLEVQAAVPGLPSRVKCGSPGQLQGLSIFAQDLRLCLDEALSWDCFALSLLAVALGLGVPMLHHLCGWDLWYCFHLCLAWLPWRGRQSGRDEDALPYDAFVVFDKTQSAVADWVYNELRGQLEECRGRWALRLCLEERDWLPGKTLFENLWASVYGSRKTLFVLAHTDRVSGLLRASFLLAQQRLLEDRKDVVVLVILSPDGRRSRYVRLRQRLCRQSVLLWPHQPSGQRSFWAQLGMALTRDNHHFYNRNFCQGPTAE
# Procedure: TLR7/8/9 Inhibition Reporter Assays
# HEK-Blue™-cells (Invivogen) overexpressing human TLR7, TLR8 or TLR9 receptors were used for screening inhibitors of these receptors using an inducible SEAP (secreted embryonic alkaline phosphatase) reporter gene under the control of the IFN-β minimal promoter fused to five NF-κB and AP-1-binding sites. Briefly, cells are seeded into Greiner 384 well plates (15000 cells per well for TLR7, 20,000 for TLR8 and 25,000 for TLR9) and then treated with test compounds in DMSO to yield a final dose response concentration range of 0.05 nM-50 μM. After a 30 minute compound pre-treatment at room temperature, the cells are then stimulated with a TLR7 ligand (gardiquimod at a final concentration of 7.5 μM), TLR8 ligand (R848 at a final concentration of 15.9 μM) or TLR9 ligand (ODN2006 at a final concentration of 5 nM) to activate NF-κB and AP-1 which induce the production of SEAP. After a 22 hour incubation at 37° C., 5% CO2, SEAP levels are determined with the addition of HEK-Blue™ Detection reagent (Invivogen), a cell culture medium that allows for detection of SEAP, according to manufacturer's specifications. The percent inhibition is determined as the % reduction in the HEK-Blue signal present in wells treated with agonist plus DMSO alone compared to wells treated with a known inhibitor.
Compound,IC50 [1] [nM],IC50 [2] [nM],IC50 [3] [nM]
"Cc1cc(-c2[nH]c3ccc(C4CCN(CC(=O)N(C)C)CC4)cc3c2C(C)C)nn(C)c1=O [Example 116, 2-(4-(2-(1,5-dimethyl-6-oxo-1,6-dihydropyridazin-3-yl)-3-isopropyl-1H-indol-5-yl)piperidin-1-yl)-N,N-dimethylacetamide]",23.8,29.6,6100
"CCn1cc(-c2[nH]c3ccc(C4CCN(C(C)C)CC4)cc3c2C(C)C)c(C)c(C)c1=O [Example 213, 1-ethyl-5-(3-isopropyl-5-(1-isopropylpiperidin-4-yl)-1H-indol-2-yl)-3,4-dimethylpyridin-2(1H)-one]",16.5,15.6,2910
"Cc1cc(-c2[nH]c3ccc(C4CCN(CC(=O)N5CCCC5)CC4)cc3c2C(C)C)cn(C)c1=O [Example 122, 5-(3-isopropyl-5-(1-(2-oxo-2-(pyrrolidin-1-yl)ethyl)piperidin-4-yl)-1H-indol-2-yl)-1,3-dimethylpyridin-2(1H)-one]",15.7,4.9,14700
"CN[C@@H](C)C(=O)N1CCC(c2ccc3[nH]c(-c4cc(C)c(=O)n(C)c4)c(C(C)C)c3c2)CC1 [Example 297, 5-(3-isopropyl-5-(1-(methyl-L-alanyl)piperidin-4-yl)-1H-indol-2-yl)-1,3-dimethylpyridin-2(1H)-one]",5.5,4.4,3990
"Cc1cc(-c2[nH]c3ccc(C4CCN(CC(=O)N(C)C)CC4)cc3c2C(C)C)cn(Cc2ccccc2)c1=O [Example 164, 2-(4-(2-(1-benzyl-5-methyl-6-oxo-1,6-dihydropyridin-3-yl)-3-isopropyl-1H-indol-5-yl)piperidin-1-yl)-N,N-dimethylacetamide]",42.4,7,2560
"CC(C)c1c(-c2cc(-c3cncnc3)c(=O)n(C)c2)[nH]c2ccc(C3CCN(CC4CCOC4)CC3)cc12 (stereo not drawn) [Example 257, 5-(3-isopropyl-5-(1-((tetrahydrofuran-3-yl)methyl)piperidin-4-yl)-1H-indol-2-yl)-1-methyl-3-(pyrimidin-5-yl)pyridin-2(1H)-one]",1.1,15.6,1980
"Cc1nc(-c2[nH]c3ccc(C4CCN(C5COC5)CC4)cc3c2C(C)C)cn(C)c1=O [Example 186, 5-(3-isopropyl-5-(1-(oxetan-3-yl)piperidin-4-yl)-1H-indol-2-yl)-1,3-dimethylpyrazin-2(1H)-one]",75.5,112,6730
"Cc1cc(-c2[nH]c3ccc(C4CCN(C(=O)C(C)(C)CO)CC4)cc3c2C(C)C)cn(C)c1=O [Example 304, 5-(5-(1-(3-hydroxy-2,2-dimethylpropanoyl)piperidin-4-yl)-3-isopropyl-1H-indol-2-yl)-1,3-dimethylpyridin-2(1H)-one]",80,7.8,≥ 50000
"Cc1cc(-c2[nH]c3ccc(C4CCN(C(C)C)CC4)cc3c2C(C)C)c(C)n(C)c1=O [Example 214, 5-(3-isopropyl-5-(1-isopropylpiperidin-4-yl)-1H-indol-2-yl)-1,3,6-trimethylpyridin-2(1H)-one]",7.9,13.9,5690
"Cc1cc(-c2[nH]c3ccc(C4CCN(CC(C)C)CC4)cc3c2C(C)C)cn(C)c1=O [Example 75, 5-(5-(1-isobutylpiperidin-4-yl)-3-isopropyl-1H-indol-2-yl)-1,3-dimethylpyridin-2(1H)-one]",5.6,5,9330
"CC(C)c1cc(-c2[nH]c3ccc(C4CCNCC4)cc3c2C(C)C)cn(C)c1=O [Example 66, 3-isopropyl-5-(3-isopropyl-5-(piperidin-4-yl)-1H-indol-2-yl)-1-methylpyridin-2(1H)-one]",70.5,12.6,764
